{"source": "patent US20070249822A1", "about": "“Photolabile Coumarinylmethyl Esters of Cyclic Nucleotides, Methods for their Preparation and Their Use” (Forschungsverbund Berlin E.V., priority 2000, published 2007)", "key": {"[1]": {"details": "cited from earlier work"}, "[2]": {"test_system": "olfactory cGMP-dependent cation channel", "experiment": "Activation of the olfactory cGMP-dependent cation channel upon photolysis of caged cGMP", "assay_type": "cell-based", "details": "for activation of the olfactory cGMP-dependent cation channel upon photolysis: HEPES buffer", "from_the_text": "The new photolabile cGMP and cAMP esters can be used successfully in the investigation of cyclic nucleotide-controlled processes."}, "[3]": {"details": "cited from earlier work", "remark": "listed apart in the source"}, "[4]": {"test_system": "cyclic nucleotide-dependent ion channel CNCα3 (from olfactory cells)", "experiment": "Whole cell measurements on HEK293 cells: activation of CNCα3 by photolytic liberation of cAMP", "assay_type": "cell-based", "details": "axial form, 500 μM intracellular solution, UV flashes 10 to 200 ms; versus 200 μM DMN-caged cGMP on CNCα2, equal exposures", "from_the_text": "Activation of Cyclic Nucleotide-Dependent Ion Channels by Photolytic Liberation of Cyclic Nucleotides from the Corresponding Caged Compounds\nUsing whole cell measurements on HEK293 cells, the activation of the cyclic nucleotide-dependent ion channel CNCα3 (from olfactory cells) by photolytic liberation of cAMP from the axial form of the compound of Example 1 ([…]) and of the cyclic nucleotide-dependent ion channel CNCα2 (from rod photoreceptors) by photolytic liberation of cGMP from the axial form of 4,5-dimethoxy-2-nitrobenzyl ester of cGMP [DMN-caged cGMP, produced according to J. M. Nerbonne, S. Richard, J. Nargeot, H. A. Lester, Nature 310, 74 (1984)] was investigated comparatively by electrophysiological means."}, "[5]": {"experiment": "Solubility of coumarinylmethyl-caged cyclic nucleotides in acetonitrile/HEPES buffer (saturation concentration by HPLC)", "assay_type": "physicochemical", "details": "acetonitrile/HEPES buffer (5:95), pH 7.2, room temperature", "protocol": "Comparison of the Solubilities of Miscellaneous coumarinyl-methyl-caged Cyclic Nucleotides in Acetonitrile/HEPES Buffer (5:95) at pH 7.2 and Room Temperature\nA suspension of the compounds in the specified solvent was treated for 5 min in an ultrasonic bath, undissolved components were removed by centrifugation, and the concentration in the solution was determined using HPLC. The following saturation concentrations were determined: […]"}}}
{"compound": "COc1ccc2c(COP3(=O)OCC4OC(n5cnc6c(N)ncnc65)C(O)C4O3)cc(=O)oc2c1", "note": "(single isomer, unassigned) [equatorial isomer of the (7-methoxycoumarin-4-yl)methyl ester of cAMP, (7-methoxycoumarin-4-yl)methyl ester of cAMP]", "values": [{"measurement": "hydrolytic halflife", "setting": "[1]; Ringer's solution", "result": 60, "unit": "h"}]}
{"compound": "COc1ccc2c(COP3(=O)OCC4OC(n5cnc6c(=O)[nH]c(N)nc65)C(O)C4O3)cc(=O)oc2c1", "note": "(stereo not drawn) [7-methoxycoumarinylmethyl-caged cGMP]", "values": [{"measurement": "activation of the olfactory cGMP-dependent cation channel upon photolysis", "setting": "[2]", "result": "not more than partially"}]}
{"compound": "Nc1ncnc2c1ncn2C1OC2COP(=O)(OCc3ccc4c(c3)C(=O)c3ccccc3C4=O)OC2C1O", "note": "(stereo not drawn) [(anthraquinon-2-yl)methyl ester of cAMP]", "values": [{"measurement": "solubility in aqueous buffer solutions", "setting": "[3]", "result": "insufficient solubility"}]}
{"compound": "Nc1ncnc2c1ncn2C1OC2COP(=O)(OCc3ccc4ccccc4c3)OC2C1O", "note": "(stereo not drawn) [(naphth-2-yl)methyl ester of cAMP]", "values": [{"measurement": "solubility in aqueous buffer solutions", "setting": "[3]", "result": "insufficient solubility"}]}
{"compound": "Nc1nc2c(ncn2C2OC3COP(=O)(OCc4cc(=O)oc5cc(OCC(=O)O)c(OCC(=O)O)cc45)OC3C2O)c(=O)[nH]1", "note": "(stereo not drawn) [Compound 10, [6,7-bis(carboxymethoxy)coumarin-4-yl]methyl ester of cGMP]", "values": [{"measurement": "amount of incident light for comparable activation of the channel", "setting": "[2]; 333 nm, compared to the 4,5-dimethoxy-2-nitro-benzyl ester of cGMP", "result": "substantially smaller amounts of incident light"}]}
{"compound": "Nc1ncnc2c1ncn2C1OC2COP(=O)(OCc3cc(=O)oc4cc(OCC(=O)O)c(OCC(=O)O)cc34)OC2C1O", "note": "(stereo not drawn) [Example 1, [6,7-Bis(carboxymethoxy)coumarin-4-yl]methyl ester of cAMP]", "values": [{"measurement": "concentration of liberated cyclic nucleotide", "setting": "[4]", "result": "substantially higher concentrations of liberated cyclic nucleotide"}]}
{"compound": "Nc1nc2c(ncn2C2OC3COP(=O)(OCc4cc(=O)oc5cc(OCC(=O)O)ccc45)OC3C2O)c(=O)[nH]1", "note": "(stereo not drawn) [Example 3]", "values": [{"measurement": "activation of the olfactory cGMP-dependent cation channel upon photolysis", "setting": "[2]", "result": "complete activation"}]}
{"compound": "Nc1nc2c(ncn2C2OC3COP(=O)(OCc4cc(=O)oc5cc(OCC(=O)O)c(OCC(=O)O)cc45)OC3C2O)c(=O)[nH]1", "note": "(stereo not drawn) [[6,7-Bis(carboxymethoxy)coumarin-4-yl]methyl-caged cGMP (equ]", "values": [{"measurement": "saturation concentration", "setting": "[5]", "result": "> 100", "unit": "µM"}]}
{"compound": "Nc1ncnc2c1ncn2C1OC2COP(=O)(OCc3cc(=O)oc4cc(OCC(=O)O)ccc34)OC2C1O", "note": "(stereo not drawn) [[7-(Carboxymethoxy)coumarin-4-yl]methyl-caged cAMP (axial)]", "values": [{"measurement": "saturation concentration", "setting": "[5]", "result": 900, "unit": "µM"}]}
{"compound": "Nc1ncnc2c1ncn2C1OC2COP(=O)(OC(C(=O)c3ccccc3)c3ccccc3)OC2C1O", "note": "(stereo not drawn) [desyl ester of cAMP]", "values": [{"measurement": "sensitivity to solvolysis", "setting": "[1]; aqueous buffer solutions", "result": "sensitive to solvolysis"}]}
{"compound": "(7-Methoxycoumarin-4-yl)methyl-caged 8-Br-cGMP [(7-Methoxycoumarin-4-yl)methyl-caged 8-Br-cGMP (axial)]", "values": [{"measurement": "saturation concentration", "setting": "[5]", "result": 40, "unit": "µM"}]}
{"compound": "(7-Methoxycoumarin-4-yl)methyl-caged 8-Br-cGMP [(7-Methoxycoumarin-4-yl)methyl-caged 8-Br-cGMP (equatorial)]", "values": [{"measurement": "saturation concentration", "setting": "[5]", "result": 20, "unit": "µM"}]}
{"compound": "(7-Methoxycoumarin-4-yl)methyl-caged cAMP", "values": [{"measurement": "saturation concentration", "setting": "[5]", "result": 15, "unit": "µM"}]}
{"compound": "(7-Methoxycoumarin-4-yl)methyl-caged cGMP [(7-Methoxycoumarin-4-yl)methyl-caged cGMP (axial)]", "values": [{"measurement": "saturation concentration", "setting": "[5]", "result": 15, "unit": "µM"}]}
{"compound": "(7-Methoxycoumarin-4-yl)methyl-caged cGMP [(7-Methoxycoumarin-4-yl)methyl-caged cGMP (equatorial)]", "values": [{"measurement": "saturation concentration", "setting": "[5]", "result": 25, "unit": "µM"}]}
